Reference: US4067982A, “Aryl-substituted piperazinyl-alkylamino-uracils, -uracil ethers and -uracil thioethers as therapeutics” (priority 1976, dated 1978)

How the values were obtained:
[1] = Solubility; format: physicochemical
[2] = tested on: mouse; test: Prolongation of sleep induced by hexobarbital, mouse; format: in vivo; details: ip; mouse, 15 mg/kg i.p.; 75 mg/kg hexobarbital; vs controls; read-out: % prolongation of sleep induced by hexobarbital by 15 mg/kg i.p.
Protocol: d = Percent prolongation of the duration of sleep of mice, which were administered 75 mg/kg hexobarbital, compared with the sleep duration of controls.

[3] = tested on: systolic and diastolic blood pressure; test: Clinical test, blood pressure in patients; format: in vivo, human
Protocol: (§1) Clinical tests were conducted with the 1,3-dimethyl-4-(γ-[4(o-methoxyphenyl)-piperazinyl-(1)]-propylamino)- uracil on two female and three male patients, with doses of 10, 20, 40 and 60 mg orally administered.
Attached Diagrams 1 and 2 show the changes of the blood pressure under the effect of various doses of 1,3-dimethyl-4-(γ-[4-(o-methoxyphenyl)-piperazinyl-(1)]-propylamino)-uracil. […] Diagram 2shows the changes of the diastolic blood pressure with the same doses of the uracil compound at an average starting diastolic blood pressure (RRd) of 95.3 mm Hg plotted against the dose of the uracil compound.

[4] = tested on: mouse; test: Analgesic effect, thermal stimulation of the tail of the mouse; format: in vivo; details: oral, 25% retardation, read-out: Retardation of the defense reaction upon thermal stimulation of the tail of the mouse by 25%
Description: The analgesic effect was thereby determined as the delay in the reaction upon thermal stimulation of the tail of the mouse.

[5] = tested on: mouse; test: PD50, rotating rod, mouse; format: in vivo; details: ip; mouse, i.p.; dose at which an average of 50% of the mice fall from a rotating rod; read-out: PD50
Description: The centrally inhibiting effect of the piperazinyl uracils of the invention in the mouse are apparent from Table IV. […] The selective action of the compounds of the invention on the central blood pressure mechanism can be used advantageously in human therapy in the treatment of hypertonic diseases.
a = Dose, at which an average of 50% of the mice fall from a rotating rod.

[6] = tested on: mouse; test: Inhibition of the motility in the tread wheel, mouse; format: in vivo; details: ip, 3 h; mouse, 25 mg/kg i.p.; 5 mg/kg d-amphetamine-sulfate; 180 minutes; read-out: % Inhibition of the motility in the tread wheel by 25 mg/kg i.p.
[7] = tested on: blood pressure of the narcotized cat; test: Lowering of the blood pressure, narcotized cat; format: in vivo; details: Felis catus, iv; for ED30: 30% lowering; for ED50: 50% lowering
[8] = tested on: patients; test: Clinical test, compatibility and sensory functions in patients; format: in vivo, human; details: two female and three male patients; 10, 20, 40 and 60 mg oral
Protocol: as §1

[9] = tested on: mouse; test: SD50, sedation symptoms, mouse; format: in vivo; details: mouse, oral; dose at which 50% show inhibition of spontaneous motility, sedation, muscle relaxation, loss of gripping; read-out: SD50 (the source's name)
Description: b = Dose, at which at an average 50% of the mice show the following symptoms: inhibition of the spontaneous motility, sadation, muscle relaxation, loss of gripping and holding ability on a horizontal wire net.

[10] = tested on: blood pressure increasing effect of noradrenaline; test: Inhibition of the pressor effect of noradrenaline, despinalized rat; format: in vivo; details: iv, 0.001 mg/kg i.v. noradrenaline, read-out: 50% inhibition of the press. effect after i.v. administration of noradrenaline with
[11] = tested on: blood pressure of the narcotized rat; test: Lowering of the blood pressure, narcotized rat; format: in vivo; parameters: unit not given here; details: 30% lowering
[12] = tested on: blood pressure increasing effect of adrenaline; test: Inhibition of the pressor effect of adrenaline, despinalized rat; format: in vivo; details: iv, 0.001 mg/kg i.v. adrenaline, read-out: 50% inhibition of the press. effect after i.v. administration of adrenaline with
[13] = tested on: carotid sinus relaxation reflex of the narcotized cat; test: Inhibition of the carotid sinus reflex, narcotized cat; format: in vivo; details: Felis catus, iv; for ED30: 30% inhibition; for ED50: 50% inhibition
[14] = in vivo; details: mouse
[15] = tested on: blood pressure, circulatory system and central nervous system; details: recognized; cited from earlier work

| SMILES | solubility in aqueous acetone [1] | change in vivo at 15 mg/kg [2] | dose response of blood pressure lowering (Diagrams 1 and 2) ([3]; doses 0 to 60 mg, average starting RRs 171.9 mm Hg, RRd 95.3 mm Hg) | difference in the effect of a dose of 20 mg and a dose of 40 mg ([3]; patients, 20 mg vs 40 mg) | lowering of the systolic and diastolic blood pressure ([3]; two female and three male patients, 10, 20, 40 and 60 mg oral) | ED25 [4] | ED50 [5] | inhibition in vivo at 25 mg/kg [6] | ED30 [7] | ED50 [7] | compatibility [8] | effect on perception and other sensory functions [8] | ED50 [9] | ED50 [10] | lowering of the blood pressure by 30% by [11] | ED50 [12] | ED30 [13] | ED50 [13] | LD50 [14] | mechanism of phentolamine [15] |
| --- | --- | --- | --- | --- | --- | --- | --- | --- | --- | --- | --- | --- | --- | --- | --- | --- | --- | --- | --- | --- |
| COc1ccccc1N1CCN(CCCNc2cc(=O)n(C)c(=O)n2C)CC1 [Example 4, 1,3-Dimethyl-4-(γ-[4-(o-methoxyphenyl)piperazinyl-(1)]-propylamino)-uracil] | readily soluble in aqueous acetone | 71% | the blood pressure is progressively lowered in response to an increasing dose of the uracil compound | statistically confirmed | statistically significant lowering of the systolic and diastolic blood pressure | 2.4 mg/kg | 52 mg/kg | 36% | 0.14 mg/kg | 0.65 mg/kg | excellent compatibility | no adverse effect on perception and other sensory functions | 100 mg/kg | 1.9 mg/kg | 0.71 | 0.36 mg/kg | 0.03 mg/kg | 0.16 mg/kg | 400 mg/kg | – |
| Cc1ccc(N(CC2=NCCN2)c2cccc(O)c2)cc1 [Phentolamine, 2-[N'-p-tolyl-N'-(m-hydroxyphenyl)-aminomethyl]-2-imidiozoline, reference compound] | – | – | – | – | – | – | – | – | 0.1 mg/kg | 0.7 mg/kg | – | – | – | 0.18 mg/kg | 0.63 | 0.047 mg/kg | 0.1 mg/kg | 0.5 mg/kg | – | specifically inhibiting the stimulating effect of adrenaline and noradrenaline, typical alpha-blocking agent |
